# Source: patent publication US20260240869A1, “ANTIPSEUDOMONAL FUSIDIC ACID COMPOUNDS” (priority 2022, published 2026)
# Like-named read-outs stand apart in the source and are kept apart here.
# How the values were obtained:
# WT PA = conditions: retrospective literature analysis (Table 6); cited from earlier work
# WT EC = conditions: retrospective literature analysis (Table 6); cited from earlier work
# P. aeruginosa PAO1 [1] = test: LC-MS/MS whole-cell accumulation assay, P. aeruginosa PAO1; format: cell-based, Pseudomonas aeruginosa; conditions: for PA accum.: P. aeruginosa, value ± s.e.m. (Chart 2)
# Protocol: (§1) Accumulation Assay. The accumulation assay was performed in triplicate in batches of ten samples, with each batch containing tetracycline or ciprofloxacin as a positive control. P. aeruginosa PAO1, PAO1 A6, PA14, PA14 A40, and PA1280, and E. coli MG1655 were used in these experiments. For each replicate, 2.5 mL (E. coli) or 5 mL (P. aeruginosa) of an overnight culture was diluted into 250 mL of fresh Luria-Bertani broth (Lennox) or Tryptic Soy Broth (TSB) and grown at 37° C. with shaking to an optical density (OD600) of 0.55-0.60. The bacteria were pelleted at 3220 r.c.f. for 10 min at 4° C., and the supernatant was discarded. The pellets were resuspended in 40 mL of phosphate buffered saline (PBS) and pelleted as before, and the supernatant was discarded. The pellets were resuspended in 8.8 mL of fresh PBS and aliquoted into ten, 1.5 mL Eppendorf tubes (875 μL each). The number of colony-forming units (CFUs) was determined by a calibration curve. The samples were equilibrated at 37° C. with shaking for 5 min; compound was added (final concentration=50 μM), and then the samples were incubated at 37° C. with shaking for either 10 min. These time points were short enough to minimize metabolic and growth changes (no changes in OD600 or CFU count observed). After incubation, 800 μL of the cultures was carefully layered on 700 μL of silicone oil (9:1 AR20/Sigma High Temperature, cooled to −78° C.). Bacteria were pelleted through the oil by centrifuging at 13 000 r.c.f. for 2 min at room temperature (with the supernatant remaining above the oil); the supernatant and oil were then removed by pipetting. To lyse the samples, each pellet was dissolved in […] of water, and then, they were subjected to three (E. coli) or four (P. aeruginosa) freeze-thaw cycles of 3 min in liquid nitrogen followed by 3 min in a water bath at 65° C. P. aeruginosa samples were then treated with 50 µM DNase and RNase and incubated at 37° C. for 15 minutes. The lysates were pelleted at 13 000 r.c.f. for 2 min at room temperature, and the supernatant was collected ([…]). The debris was resuspended in 100 μL of methanol and pelleted as before. The supernatants were removed and combined with the previous supernatants collected. Finally, the remaining debris was removed by centrifuging at 20 000 r.c.f. for 10 min at room temperature. Supernatants were analyzed by LC-MS/MS.
# (§2) Samples were analyzed with the 5500 QTRAP LC/MS/MS system (AB Sciex) with a 1200 series HPLC system (Agilent Technologies) including a degasser, an autosampler, and a binary pump. Liquid chromatography separation was performed on an Agilent SB-Aq column (4.6×50 mm, 5 μm) (Agilent Technologies) with mobile phase A (0.1% formic acid in water) and mobile phase B (0.1% formic acid in acetonitrile). The flow rate was 0.3 mL/min. The linear gradient was as follows: 0-3 min, 100% mobile phase A; 10-15 min, 2% mobile phase A; 15.5-21 min, 100% mobile phase A. The autosampler was set at 5° C. The injection volume was 15 μL. Mass spectra were acquired with both positive electrospray ionization at the ion spray voltage of 5500 V and negative electrospray ionization at the ion spray voltage of −4500 V. The source temperature was 450° C. The curtain gas, ion source gas 1, and ion source gas 2 were 33, 50, and 65, respectively. Multiple reaction monitoring was used to quantify the metabolites. Power analysis was not used to determine the number of replicates. Error bars represent the standard error of the mean of three biological replicates. The statistical significance of the accumulation was determined using a two sample Welch's t test (one-tailed test, assuming unequal variance) relative to the negative controls. All compounds evaluated in the biological assays were >95% pure.
# MBN assay. Assays measuring permeabilization by polymyxin B nonapeptide (PMBN) were performed as above, with the addition of 8 μg/mL PMBN immediately before the compound of interest was added.
# E. coli MG1655 [2] = test: LC-MS/MS whole-cell accumulation assay, E. coli MG1655; format: cell-based; conditions: for EC accum.: E. coli, value ± s.e.m. (Chart 2)
# Protocol: as §1, §2
# P. aeruginosa PAO1 [3] = test: MIC, CLSI broth microdilution, P. aeruginosa PAO1; format: cell-based, Pseudomonas aeruginosa; conditions: for MIC: Pseudomonas aeruginosa
# Protocol: (§3) Antimicrobial Susceptibility Tests. Susceptibility testing was performed in biological triplicate, using the microdilution broth method as outlined by the Clinical and Laboratory Standards Institute. Bacteria were cultured with cation-adjusted Meuller-Hinton broth (Sigma-Aldrich; catalogue number: 90922) or Luria-Bertani (LB) broth (Lennox) in round-bottom 96-well plates (Corning; catalogue number: 3788).
# E. coli MG1655 [4] = test: MIC, E. coli MG1655; format: cell-based; conditions: Escherichia coli, MG1655; CLSI (Table 8); read-out: E. coli MG1655 MIC
# Protocol: as §3
# P. aeruginosa PAΔ6 [5] = test: MIC, efflux pump knockout strain PAΔ6; format: cell-based, Pseudomonas aeruginosa
# Protocol: as §3
# P. aeruginosa PAΔ6 [6] = test: LC-MS/MS whole-cell accumulation assay, PAΔ6; format: cell-based, Pseudomonas aeruginosa
# Protocol: as §1, §2
# tolC EC = conditions: retrospective literature analysis (Table 6); cited from earlier work
smiles,measurement,setting,value
CCNc1cc(F)cc2c1[nH]c1ncc(-c3cnc(OC)nc3)c(-n3ncc4c3CNC4)c12 [Compound 17x],WT PA MIC,WT PA,10 µg/mL
same,WT EC MIC,WT EC,0.81 µg/mL
CN1C(=O)CCc2cc(-c3cncc4c3CCC[C@H]4N)ccc21 [Compound 53],PA accum.,P. aeruginosa PAO1 [1],282 ± 37 nmol/10^12 CFUs
same,EC accum.,E. coli MG1655 [2],437 ± 28 nmol/10^12 CFUs
Cc1ccc(C(=O)N(CCCN)[C@@H](c2nc3cc(Cl)ccc3c(=O)n2Cc2ccccc2)C(C)C)cc1 [Compound 56],PA accum.,P. aeruginosa PAO1 [1],658 ± 113 nmol/10^12 CFUs
same,EC accum.,E. coli MG1655 [2],244 ± 31 nmol/10^12 CFUs
Cc1nc(-c2ccc(C(C)(C)C)cc2)ncc1C(=O)N[C@@H](CCO)C(=O)N(C)[C@@H]1C(=O)N[C@@H](C)C(=O)N[C@H](C(=O)NCC#N)Cc2ccc(O)c(c2)-c2cc1ccc2O [Compound G8126],WT PA MIC,WT PA,>64 µg/mL
same,WT EC MIC,WT EC,32 µg/mL
Cc1ccc(S(=O)(=O)O[C@@H]2CO[C@H]3[C@@H]2OC[C@@H]3N)cc1 [Compound 50],PA accum.,P. aeruginosa PAO1 [1],163 ± 39 nmol/10^12 CFUs
same,EC accum.,E. coli MG1655 [2],877 ± 29 nmol/10^12 CFUs
NC1CCCc2c1cncc2N1Cc2cc(Cl)ccc2C1=O (centres unmarked) [Compound 51],PA accum.,P. aeruginosa PAO1 [1],222 ± 11 nmol/10^12 CFUs
same,EC accum.,E. coli MG1655 [2],500 ± 10 nmol/10^12 CFUs
CC(=O)O[C@H]1C[C@@]2(C)[C@@H](C[C@@H](O)[C@H]3[C@@]4(C)CC[C@@H](O)[C@@H](C)[C@@H]4CC[C@@]32C)/C1=C(\CCC=C(C)C)C(=O)O/N=C(\N)CNCCCN [FA prodrug 2],MIC,"P. aeruginosa PAO1 [3]; PAO1, CLSI (Table 8), read-out: P. aeruginosa PAO1 MIC",> 256 µg/mL
same,MIC,E. coli MG1655 [4],256 µg/mL
same,EC Accumulation (FA),"E. coli MG1655 [2]; E. coli MG1655, accumulation of FA reported (Table 8)",969 ± 71 nmol/1012 CFUs
O=C(N[C@H](CO)[C@H](O)c1ccc([N+](=O)[O-])cc1)C(Cl)Cl [Chloramphenicol],MIC,"P. aeruginosa PAO1 [3]; WT P. aeruginosa PAO1, MH or LB broth (Table 2), read-out: WT MIC",> 512 µg/mL
same,WT MIC,"P. aeruginosa PAO1 [3]; WT P. aeruginosa PAO1, MH or LB broth (Table 7)",>512 µg/mL
same,PAΔ6 MIC,P. aeruginosa PAΔ6 [5]; MH or LB broth (Table 7),4 µg/mL
same,Fold change,P. aeruginosa PAΔ6 [5]; MIC ratio WT PAO1 / PAΔ6 (Table 2),>128
same,Fold change (MIC),P. aeruginosa PAΔ6 [5]; WT MIC / PAΔ6 MIC (Table 7),>128
same,PAΔ6 MIC,"P. aeruginosa PAΔ6 [5]; efflux pump KO strain, MH or LB broth (Table 2)",4 µg/mL
same,WT Accum,"P. aeruginosa PAO1 [1]; WT PAO1, ± s.e.m. (Table 7)",122 ± 23 nmol/10^12 CFUs
same,change of accumulation in efflux pump knockout PAΔ6 versus WT PAO1,P. aeruginosa PAΔ6 [6]; FIG. 1c,increase in accumulation
same,Fold change (Accum),P. aeruginosa PAΔ6 [6]; PAΔ6 Accum / WT Accum (Table 7),4.4
same,PAΔ6 Accum,P. aeruginosa PAΔ6 [6]; ± s.e.m. (Table 7),537 ± 19 nmol/10^12 CFUs
N[C@H]1CO[C@H]2[C@@H]1OC[C@H]2OS(=O)(=O)c1ccc(Br)cc1 [Compound 49],PA accum.,P. aeruginosa PAO1 [1],217 ± 3 nmol/10^12 CFUs
same,EC accum.,E. coli MG1655 [2],1647 ± 108 nmol/10^12 CFUs
CC(=O)C1=C(O)[C@H](N)[C@@H]2Cc3c(c(O)c4c(O)c(C)ccc4c3C)C(=O)[C@]2(O)C1=O [CHD],WT PA MIC,WT PA,16 µg/mL
same,tolC EC MIC,tolC EC,0.5 µg/mL
Cc1nc(-c2ccc(C(C)(C)C)cc2)ncc1C(=O)N[C@@H](CCN)C(=O)N(C)[C@@H]1C(=O)N[C@@H](C)C(=O)N[C@H](C(=O)NCC#N)Cc2ccc(OCCN)c(c2)-c2cc1ccc2OCCN [Compound G0775],WT PA MIC,WT PA,2 µg/mL
same,WT EC MIC,WT EC,0.125 µg/mL
same,tolC EC MIC,tolC EC,0.063 µg/mL
